Assay results published in PMC5357620, “The NiFe Hydrogenases of the Tetrachloroethene-Respiring Epsilonproteobacterium Sulfurospirillum multivorans: Biochemical Studies and Transcription Analysis” (Frontiers in Microbiology, 2017).

Molecular target: T1, membrane-bound hydrogenase (MBH, HydABC) (Sulfurospirillum multivorans, UniProt A0AA86ALJ1+A0AA86ANH9+A0AA86DZD7)
T1 construct: gene hydB; HydA TAT signal peptide cleaved; predicted HydB 62, HydA 34, HydC 26 kDa; dimer of heterotrimers, about 270 kDa; with Periplasmic [NiFe] hydrogenase, large subunit
T1 sequence (A0AA86DZD7 1-561): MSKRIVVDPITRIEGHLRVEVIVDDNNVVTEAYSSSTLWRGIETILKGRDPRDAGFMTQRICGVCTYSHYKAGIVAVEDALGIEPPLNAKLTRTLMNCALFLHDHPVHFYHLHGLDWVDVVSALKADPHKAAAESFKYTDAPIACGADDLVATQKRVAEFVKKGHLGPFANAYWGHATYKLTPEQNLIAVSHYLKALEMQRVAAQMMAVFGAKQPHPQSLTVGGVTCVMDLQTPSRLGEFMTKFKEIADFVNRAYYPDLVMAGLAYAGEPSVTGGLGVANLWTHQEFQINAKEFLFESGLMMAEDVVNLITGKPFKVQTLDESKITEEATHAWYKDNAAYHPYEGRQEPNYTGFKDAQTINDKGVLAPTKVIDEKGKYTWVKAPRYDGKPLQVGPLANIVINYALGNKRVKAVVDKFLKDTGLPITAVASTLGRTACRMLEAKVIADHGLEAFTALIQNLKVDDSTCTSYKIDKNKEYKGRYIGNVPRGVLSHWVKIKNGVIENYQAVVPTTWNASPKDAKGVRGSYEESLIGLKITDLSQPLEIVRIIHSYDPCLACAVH
T1 sequence (A0AA86ALJ1 68-385): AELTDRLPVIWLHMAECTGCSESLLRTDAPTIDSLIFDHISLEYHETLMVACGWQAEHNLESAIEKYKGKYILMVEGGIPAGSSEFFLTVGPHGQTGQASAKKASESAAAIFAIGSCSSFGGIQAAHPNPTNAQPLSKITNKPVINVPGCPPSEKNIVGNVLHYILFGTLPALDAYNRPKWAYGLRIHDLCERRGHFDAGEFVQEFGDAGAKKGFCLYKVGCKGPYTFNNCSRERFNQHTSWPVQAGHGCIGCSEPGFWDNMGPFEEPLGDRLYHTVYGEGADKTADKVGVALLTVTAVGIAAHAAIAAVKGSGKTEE
T1 sequence (A0AA86ANH9 1-225): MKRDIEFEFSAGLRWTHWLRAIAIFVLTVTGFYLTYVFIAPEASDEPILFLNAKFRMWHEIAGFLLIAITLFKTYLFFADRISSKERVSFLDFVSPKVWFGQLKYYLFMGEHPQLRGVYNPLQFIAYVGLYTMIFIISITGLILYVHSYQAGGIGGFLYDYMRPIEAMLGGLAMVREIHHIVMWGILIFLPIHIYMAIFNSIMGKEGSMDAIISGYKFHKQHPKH
Assay: spectrophotometric H2-dependent DMN reduction, […] nm minus […] nm
Format: biochemical
Settings: H2 as electron donor; 0.2 mM DMN; 50 mM glycylglycine pH 8.0; 0.5 mM DTT; electron acceptor, presumably via HydC cytochrome b; partially purified enzyme

Question: How did the “spectrophotometric H2-dependent DMN reduction, 270 nm minus 290 nm” value turn out when `CC1=C(C)C(=O)c2ccccc2C1=O` [DMN, 2,3-dimethyl-1,4-naphthoquinone] was run?
Answer: both fractions showed activity with DMN as electron acceptor
